Several values for one entry are separate records, joined by “and”; a condition that tells them apart may be missing. Equal entries are not always repeated. Where two headings read alike, the source gives them in different places.

For assay [1], the system named is Prv. nigrescence. Nature of the assay: CPC and delmopinol combination (chequerboard assay), FICi/FBCi. The format is cell-based, Prevotella nigrescence. The procedure:
(§1) 190 μl of normal broth (standard assays) or broth A was added to wells of a 96 well plate. […] 5 μl of each dilution of delmopinol was added to the appropriate wells of the 96 wells plate. The contents of each well were mixed thoroughly and then 100 μl volume was discarded.
(§2) Plates were then incubated as described above. […] Following incubation the plates were examined and growth/no growth recorded for every well sample (used for FBC determination).
(§3) FBCi were calculated in the same manner but using MBC data.
(§4) The FICi and FBCi were interpreted using the same parameters as set out above.

Assay [2] relates to C. albicans. The description is as above. The format is cell-based, Candida albicans. To be noted: CPC + delmopinol. The method, then: as §1, §2, §3, §4
Assay [3] concerns P. gingivalis. The description is as above. To be noted: CPC + delmopinol, Standard broth. The format is cell-based, Porphyromonas gingivalis. The procedure:
as §1, §2, §3, §4

In another assay the test system is E. faecalis. The assay is described as follows: MIC/MBC of CPC or delmopinol alone. The class given is cell-based, Entercoccus faecalis. To be noted: Enterococcus faecalis, compound alone. The method, then:
(§5) The final mixture was then sterilized by filtration using a […] PES filter (Nalgene, 169-0045).
(§6) Bacterial preparations were prepared using freshly grown cultures on solid media. Several loop-fulls of culture were transferred to 10-20 ml of the appropriate broth and vortexed gently until a fine suspension was produced. The initial OD600 nm of the cell suspensions was measured and adjusted to 0.2 to give a colony count of 1×10^8 cfu/ml. Final inocula were prepared by diluting the adjusted cell suspensions in appropriate broth as detailed below:
(§7) The broths were added to wells in columns 1, 11 (negative control, broth only) and 12 (positive control).
(§8) 100 μl of normal broth (standard assay) or broth A was added to wells in columns 2-10.
(§9) After mixing in column 10, 100 μl was discarded. 5 μl of the appropriate solvent was added to wells in column 12, mixed and 100 μl discarded.
(§10) Finally, 100 μl of inoculum (prepared in either normal broth or 2× broth A) was added to the wells in columns 1-10 and 12 and the plates were incubated as described above.

The test system of assay [4] is Prv. nigrescence. The assay is described as follows: MIC/MBC of CPC or delmopinol alone. The class given is cell-based. Particulars: Prevotella, compound alone. The procedure:
as §5, §6, §7, §8, §9, §10

The subject of another assay is E. coli. The assay is described as follows: MIC/MBC of CPC or delmopinol alone. The format is cell-based. Particulars: Escherichia coli, compound alone. The method, then:
as §5, §6, §7, §8, §9, §10

The test system of a further assay is S. aureus. Nature of the assay: MIC/MBC of CPC or delmopinol alone. Particulars: Staphylococcus aureus. The class given is cell-based. The method, then:
as §5, §6, §7, §8, §9, §10

Assay [5] concerns C. albicans. The assay is described as follows: MIC/MBC of CPC or delmopinol alone. To be noted: Candida albicans, compound alone. The format is cell-based. The method, then: as §5, §6, §7, §8, §9, §10
Assay [6] concerns P. gingivalis. Nature of the assay: MIC/MBC of CPC or delmopinol alone. The format is cell-based. To be noted: Porphyromonas gingivalis. The method, then:
as §5, §6, §7, §8, §9, §10

The mark [7] stands for this setting: Decapinol base (Broth A), no delmopinol or sodium benzoate present, read-out: Activity alone Decapinol base MBC.
Where [8] appears, read: Decapinol base (Broth A), no delmopinol or sodium benzoate present, read-out: Activity alone Decapinol base MIC.
[9] abbreviates: Standard broth, read-out: Activity alone Standard MBC.
The mark [10] stands for this setting: Standard broth, read-out: Activity alone Standard MIC.

Regarding `CCCCCCCCCCCCCCCC[n+]1ccccc1` [CPC, cetylpyridinium chloride], in the assay with Prv. nigrescence [1], the “Combination with delmopinol (FIC) Decapinol base FBCi” value is 0.53p, the “Combination with delmopinol (FIC) Decapinol base FICi” value was 0.5 s and the “Combination with delmopinol (FIC) Standard FBCi” value worked out at 0.79. Besides, in the assay on C. albicans [2] (Decapinol base (Broth A)), the “Combination with delmopinol (FIC) Decapinol base FBCi” value worked out at 0.65p and the “Combination with delmopinol (FIC) Decapinol base FICi” value came to 0.99. In addition, the “Combination with delmopinol (FIC) Standard FBCi” value in the assay on C. albicans [2] (Standard broth) is recorded as 0.68p. The “Combination with delmopinol (FIC) Standard FICi” value with P. gingivalis [3] is given as 0.62p.
The MIC is the least concentration at which growth counts as inhibited. With `CCCC(CCC)CCCC1COCCN1CCO` (centres unmarked) [Delmopinol, 3-(4-propylheptyl)-4-(2-hydroxyethyl)morpholine], the MBC in the assay on E. faecalis (setting [7]) was 250 µg/mL and 920 µM; in the assay on E. faecalis (setting [9]), 250 µg/mL and 920 µM; with Prv. nigrescence [4] (setting [7]) it was 125 µg/mL and 460 µM; in the assay with Prv. nigrescence [4] (setting [9]) it was 62.5 µg/mL and 230 µM; in the assay on E. coli (setting [7]), 250 µg/mL and 920 µM; in the assay with E. coli (setting [9]), 250 µg/mL and 920 µM. Also, the MBC in the assay with S. aureus (S. aureus, compound alone, Decapinol base (Broth A), no delmopinol or sodium benzoate present, read-out: Activity alone Decapinol base MBC) was 250 µg/mL and 920 µM; with S. aureus (S. aureus, compound alone, Standard broth, read-out: Activity alone Standard MBC) it was 250 µg/mL and 920 µM; in the assay with C. albicans [5] (setting [7]) it was 120 µg/mL and 460 µM; in the assay with C. albicans [5] (setting [9]) it was 500 µg/mL and 1840 µM; in the assay with P. gingivalis [6] (read-out: Activity alone Decapinol base MBC), 31.2 µg/mL; in the assay on P. gingivalis [6] (read-out: Activity alone Standard MBC), 31.2 µg/mL. Further, the MBC in the assay with P. gingivalis [6] (P. gingivalis, compound alone, Decapinol base (Broth A), no delmopinol or sodium benzoate present, read-out: Activity alone Decapinol base MBC) was found to be 120 µM; in the assay on P. gingivalis [6] (P. gingivalis, compound alone, Standard broth, read-out: Activity alone Standard MBC), 120 µM. The minimum inhibitory concentration (MIC) with E. faecalis (setting [8]) is 250 µg/mL and 920 µM; with E. faecalis (setting [10]), 250 µg/mL and 920 µM; with Prv. nigrescence [4] (setting [8]) it was 31.2 µg/mL and 120 µM; in the assay with Prv. nigrescence [4] (setting [10]) it was 62.5 µg/mL and 230 µM; with E. coli (setting [8]), 250 µg/mL and 920 µM; with E. coli (setting [10]) it was 250 µg/mL and 920 µM. For the same molecule, the MIC in the assay on S. aureus (read-out: Activity alone Standard MIC) was 125 µg/mL; with S. aureus (S. aureus, compound alone, Decapinol base (Broth A), no delmopinol or sodium benzoate present, read-out: Activity alone Decapinol base MIC) it was 250 µg/mL and 920 µM; in the assay on S. aureus (S. aureus, compound alone, Standard broth, read-out: Activity alone Standard MIC), 460 µM; in the assay on C. albicans [5] (setting [8]) it was 120 µg/mL and 460 µM; in the assay on C. albicans [5] (setting [10]), 500 µg/mL and 1840 µM; with P. gingivalis [6] (read-out: Activity alone Decapinol base MIC), 31.2 µg/mL. For the same molecule, the MIC was 1.2 µM in the assay on P. gingivalis [6] (P. gingivalis, compound alone, Decapinol base (Broth A), no delmopinol or sodium benzoate present, read-out: Activity alone Decapinol base MIC) and 1.95 µg/mL in the assay on P. gingivalis [6] (P. gingivalis, compound alone, Standard broth, read-out: Activity alone Standard MIC).

The values above are taken from patent US20150010479A1, “TREATMENT OF MICROBIAL INFECTIONS” (SINCLAIR PHARMACEUTICALS LIMITED, priority 2012, published 2015).
